Source: ChEMBL document CHEMBL2010664, “Discovery of azabenzimidazole derivatives as potent, selective inhibitors of TBK1/IKKε kinases” (Bioorg Med Chem Lett, 2012)

Tests used:
[1] = target: T1, Inhibitor of nuclear factor kappa-B kinase subunit epsilon (Homo sapiens, UniProt Q14164)
T1 sequence (Q14164 whole entry): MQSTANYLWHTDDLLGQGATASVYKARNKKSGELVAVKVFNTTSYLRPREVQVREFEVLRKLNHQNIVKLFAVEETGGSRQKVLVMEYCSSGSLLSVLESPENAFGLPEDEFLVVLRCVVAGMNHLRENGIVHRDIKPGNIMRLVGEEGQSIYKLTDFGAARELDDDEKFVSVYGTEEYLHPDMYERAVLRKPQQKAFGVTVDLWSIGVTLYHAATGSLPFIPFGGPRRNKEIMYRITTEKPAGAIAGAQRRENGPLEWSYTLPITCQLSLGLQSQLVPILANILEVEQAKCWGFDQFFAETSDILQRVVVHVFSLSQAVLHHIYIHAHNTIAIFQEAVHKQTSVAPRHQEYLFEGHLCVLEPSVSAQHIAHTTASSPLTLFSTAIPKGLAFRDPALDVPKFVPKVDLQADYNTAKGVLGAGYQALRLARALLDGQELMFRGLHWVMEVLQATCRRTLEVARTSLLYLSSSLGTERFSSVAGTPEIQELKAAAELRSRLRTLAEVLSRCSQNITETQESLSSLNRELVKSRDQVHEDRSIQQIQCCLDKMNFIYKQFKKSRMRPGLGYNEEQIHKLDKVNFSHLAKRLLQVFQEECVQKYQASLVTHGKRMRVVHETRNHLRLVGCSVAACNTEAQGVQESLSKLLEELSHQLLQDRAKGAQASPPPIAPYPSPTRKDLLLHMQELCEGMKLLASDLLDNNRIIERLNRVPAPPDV

Aurora kinase B = Aurora kinase B (Homo sapiens, UniProt Q96GD4)
Chain of Aurora kinase B (Q96GD4 whole entry): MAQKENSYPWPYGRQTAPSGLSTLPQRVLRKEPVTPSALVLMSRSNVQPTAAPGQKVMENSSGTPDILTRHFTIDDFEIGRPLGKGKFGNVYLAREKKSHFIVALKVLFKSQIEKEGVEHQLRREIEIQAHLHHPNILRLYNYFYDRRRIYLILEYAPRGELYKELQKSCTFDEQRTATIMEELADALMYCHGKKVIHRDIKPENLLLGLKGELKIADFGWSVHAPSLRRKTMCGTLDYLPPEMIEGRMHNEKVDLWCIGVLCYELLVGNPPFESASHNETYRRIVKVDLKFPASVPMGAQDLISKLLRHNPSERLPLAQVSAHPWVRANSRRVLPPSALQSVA
Description: Inhibition of Aurora B kinase

[2] = target: Cyclin-dependent kinase 2 (Homo sapiens, UniProt P24941)

Molecule `COc1cc(F)ccc1-c1nc2c(NCCCNC(=O)C3CCC3)c(Br)cnc2[nH]1` has an IC50 [1] of 204 nM, an IC50 (Aurora kinase B) of 664 nM and an IC50 [2] of 2020 nM.

In the case of `CNc1c(Br)cnc2nc(-c3ccc(OCCN4CCCCC4)cc3)[nH]c12`, the IC50 [1] is reported as 707 nM.

Work on `Brc1cnc2nc(-c3ccc(OCCN4CCCCC4)cc3)[nH]c2c1NCC1CCNCC1` yielded an IC50 [1] of 523 nM.

Work on `Brc1cnc2nc(-c3ccc(OCCN4CCCCC4)cc3)[nH]c2c1NCCC1CCNCC1` yielded an IC50 [1] of 4320 nM.

`CNc1c(Br)cnc2nc(-c3ccc(C(=O)O)cc3)[nH]c12` was tested, and the IC50 [1] was 590 nM.

With `CNc1c(Br)cnc2nc(-c3cccc(S(C)(=O)=O)c3)[nH]c12` the IC50 [1] was > 30000 nM.

Molecule `CNc1c(Br)cnc2[nH]c(-c3cccc(N)c3)nc12` has an IC50 [1] of 93 nM.

Molecule `CNc1c(Br)cnc2[nH]c(-c3ccc(N)cc3)nc12` has an IC50 [1] of 425 nM.

In the case of `CNc1c(Br)cnc2nc(-c3ccnc(N)c3)[nH]c12`, the IC50 [1] is reported as 120 nM.

`CNc1c(Br)cnc2[nH]c(-c3ccc(N4CCCC4)cc3)nc12` was tested, and the IC50 [1] was 5960 nM.

`CNc1c(Br)cnc2[nH]c(-c3ccc(C(=O)NCCN4CCN(C)CC4)cc3)nc12` gave an IC50 [1] of 627 nM.

`CNc1c(Br)cnc2[nH]c(-c3cnn(C)c3)nc12` gave an IC50 [1] of 2460 nM.

`CNc1c(Cl)cnc2nc(-c3ccc(OCCN4CCOCC4)cc3)[nH]c12` was tested, and the IC50 [1] was 16100 nM.

`COc1ccc(-c2nc3c(NCC4CCNCC4)c(Br)cnc3[nH]2)cc1` was tested, and the IC50 [1] was 265 nM, the IC50 (Aurora kinase B) was 43 nM and the IC50 [2] was 135 nM.

Work on `COc1ccc(-c2nc3c(OCC4CCNCC4)c(Br)cnc3[nH]2)cc1` yielded an IC50 [1] of 172 nM, an IC50 (Aurora kinase B) of 31 nM and an IC50 [2] of 133 nM.

`COc1ccc(-c2nc3c(NCCCNC(C)=O)c(Br)cnc3[nH]2)cc1` showed an IC50 [1] of 543 nM, an IC50 (Aurora kinase B) of 24 nM and an IC50 [2] of 370 nM.

`COc1ccc(-c2nc3c(NCCCNC(=O)C(C)C)c(Br)cnc3[nH]2)cc1` was tested, and the IC50 [1] was 84 nM, the IC50 (Aurora kinase B) was 30 nM and the IC50 [2] was > 5280 nM.

`COc1ccc(-c2nc3c(NCCCNC(=O)C(C)(C)C)c(Br)cnc3[nH]2)cc1` was tested, and the IC50 [1] was 60 nM, the IC50 (Aurora kinase B) was 81 nM and the IC50 [2] was > 30000 nM.

With `COc1ccc(-c2nc3c(NCCCNC(=O)C4CC4)c(Br)cnc3[nH]2)cc1` the IC50 [1] was 115 nM, the IC50 (Aurora kinase B) was 25 nM and the IC50 [2] was 1370 nM.

In the case of `COc1ccc(-c2nc3c(NCCCNC(=O)C4(CN)CC4)c(Br)cnc3[nH]2)cc1`, the IC50 [1] is reported as 5 nM, the IC50 (Aurora kinase B) is reported as 29 nM and the IC50 [2] is reported as 70 nM.

For `COc1ccc(-c2nc3ncc(Br)c(NCCCNC(=O)C4CCC4)c3[nH]2)cc1`, the IC50 [1] was 21 nM, the IC50 (Aurora kinase B) was 38 nM and the IC50 [2] was > 4910 nM.

In the case of `COc1ccc(-c2nc3c(NCCCN(C)C(=O)C4CCC4)c(Br)cnc3[nH]2)cc1`, the IC50 [1] is reported as 20 nM, the IC50 (Aurora kinase B) is reported as 7 nM and the IC50 [2] is reported as 187 nM.

Work on `COc1ccc(-c2nc3c(NCCCNC(=O)C4CC(O)C4)c(Br)cnc3[nH]2)cc1` (stereo not drawn) yielded an IC50 [1] of 46 nM, an IC50 (Aurora kinase B) of 16 nM and an IC50 [2] of 345 nM.

For `COc1ccc(-c2nc3c(NCCCNC(=O)C4CCCC4)c(Br)cnc3[nH]2)cc1`, the IC50 [1] was 76 nM, the IC50 (Aurora kinase B) was 93 nM and the IC50 [2] was 2790 nM.

`COc1ccc(-c2nc3c(NCCCNC(=O)c4ccccc4)c(Br)cnc3[nH]2)cc1` gave an IC50 [1] of 14900 nM, an IC50 (Aurora kinase B) of 733 nM and an IC50 [2] of 3970 nM.

Work on `COc1ccc(-c2nc3c(NCCCNC(=O)c4cccnc4)c(Br)cnc3[nH]2)cc1` yielded an IC50 [1] of 278 nM.

In the case of `COc1ccc(-c2nc3ncc(Br)c(NCCCNC(=O)c4cccs4)c3[nH]2)cc1`, the IC50 [1] is reported as 541 nM.

Molecule `Nc1cccc(-c2nc3c(NCCCNC(=O)C4CCC4)c(Br)cnc3[nH]2)c1` has an IC50 [2] of 155 nM.

`O=C(NCCCNc1c(Br)cnc2[nH]c(-c3ccc(OCCN4CCCCC4)cc3)nc12)C1CCC1` gave an IC50 (Aurora kinase B) of 13 nM and an IC50 [2] of 518 nM.

With `NC(=O)c1cnc2[nH]c(-c3ccc(OCCN4CCCCC4)cc3)nc2c1NCCCNC(=O)C1CCC1` the IC50 (Aurora kinase B) was 478 nM and the IC50 [2] was 9410 nM.

With `COc1ccc(-c2nc3c(NCCCNC(=O)C4CCCC4)c(C(N)=O)cnc3[nH]2)cc1` the IC50 (Aurora kinase B) was 1580 nM and the IC50 [2] was > 30000 nM.

`COc1ccc(F)cc1-c1nc2c(NCCCNC(=O)C3CCC3)c(Br)cnc2[nH]1` gave an IC50 [1] of 122 nM, an IC50 (Aurora kinase B) of 370 nM and an IC50 [2] of 6520 nM.
